Reference: ChEMBL document CHEMBL4196231, “Peptidomimetics for Targeting Protein-Protein Interactions between DOT1L and MLL Oncofusion Proteins AF9 and ENL” (ACS Med Chem Lett, 2018)
Square brackets hold non-standard residues; d marks the D form. Peptide text beside a SMILES is read from it. * marks the point of attachment. X3 = c1ccc(-c2cn(CC3CCCCC3)c([C@@H]3CCCN3*)n2)cc1; X2 = CC(C)n1cc(-c2ccccc2)nc1[C@@H]1CCCN1*; X1 = CCn1cc(-c2ccccc2)nc1[C@@H]1CCCN1*; 1Nal = N[C@@H](Cc1cccc2ccccc12)C(=O)O; 2Nal = N[C@@H](Cc1ccc2ccccc2c1)C(=O)O; X4 = Cn1cc(-c2ccccc2)nc1[C@@H]1CCCN1*; Ala(cPent) = N[C@@H](CC1CCCC1)C(=O)O; Gly(cPent) = N[C@H](C(=O)O)C1CCCC1; Ala(cPr) = N[C@@H](CC1CC1)C(=O)O; Pentanoyl(4-Me) = CC(C)CCC(=O)*; Cha = N[C@@H](CC1CCCCC1)C(=O)O; Chg = N[C@H](C(=O)O)C1CCCCC1; Orn = NCCC[C@H](N)C(=O)O; Dap = NC[C@H](N)C(=O)O; Bz = O=C(c1ccccc1)*

Legend:
Protein AF-9 = molecular target: T1, Protein AF-9 (Homo sapiens, UniProt P42568); experiment: Displacement of N-Flu-DOT1L from MBP-tagged AF9 (unknown origin) (487 to 568 residues) expressed in Escherichia coli BL21(DE3) measured after 3 hrs by fluorescence polarization assay
T1 sequence (P42568 whole entry): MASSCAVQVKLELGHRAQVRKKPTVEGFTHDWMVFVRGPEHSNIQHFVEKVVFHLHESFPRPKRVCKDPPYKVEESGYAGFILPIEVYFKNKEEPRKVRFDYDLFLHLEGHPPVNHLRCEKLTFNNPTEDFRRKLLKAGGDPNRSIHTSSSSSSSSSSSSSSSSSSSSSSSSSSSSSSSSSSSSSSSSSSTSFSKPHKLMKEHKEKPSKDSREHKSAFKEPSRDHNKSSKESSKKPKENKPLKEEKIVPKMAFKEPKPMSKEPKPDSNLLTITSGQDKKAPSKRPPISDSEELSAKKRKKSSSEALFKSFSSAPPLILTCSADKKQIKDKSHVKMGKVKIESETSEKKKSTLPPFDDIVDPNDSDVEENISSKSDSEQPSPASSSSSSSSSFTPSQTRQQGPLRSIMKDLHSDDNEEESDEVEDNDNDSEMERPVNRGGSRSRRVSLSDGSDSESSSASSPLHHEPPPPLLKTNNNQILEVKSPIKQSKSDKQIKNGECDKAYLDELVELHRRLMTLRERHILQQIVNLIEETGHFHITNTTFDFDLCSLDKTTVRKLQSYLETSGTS

Protein ENL = molecular target: T2, Protein ENL (Homo sapiens, UniProt Q03111); experiment: Displacement of N-Flu-DOT1L from MBP-tagged ENL (unknown origin) (489 to 559 residues) expressed in Escherichia coli BL21(DE3) measured after 3 hrs by fluorescence polarization assay
T2 sequence (Q03111 whole entry): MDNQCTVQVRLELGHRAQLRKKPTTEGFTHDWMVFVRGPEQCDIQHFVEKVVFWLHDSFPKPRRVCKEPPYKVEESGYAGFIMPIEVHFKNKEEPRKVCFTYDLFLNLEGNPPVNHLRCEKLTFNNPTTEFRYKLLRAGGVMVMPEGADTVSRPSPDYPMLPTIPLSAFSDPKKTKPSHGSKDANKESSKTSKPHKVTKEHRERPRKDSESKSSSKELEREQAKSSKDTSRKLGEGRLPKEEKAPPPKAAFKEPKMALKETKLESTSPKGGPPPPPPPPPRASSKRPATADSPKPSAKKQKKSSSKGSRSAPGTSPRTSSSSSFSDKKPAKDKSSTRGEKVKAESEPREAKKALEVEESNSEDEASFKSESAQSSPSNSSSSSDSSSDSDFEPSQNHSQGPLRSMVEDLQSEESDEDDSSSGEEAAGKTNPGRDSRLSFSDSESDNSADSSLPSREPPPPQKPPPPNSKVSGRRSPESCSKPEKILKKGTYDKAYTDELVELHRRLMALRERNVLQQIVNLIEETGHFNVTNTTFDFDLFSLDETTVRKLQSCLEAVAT

Row | Molecule | IC50 (Protein AF-9) | Ki (Protein AF-9) | IC50 (Protein ENL) | Ki (Protein ENL)
1 | CC[C@H](C)[C@H](NC(=O)[C@@H]1CCCN1C(=O)[C@H](CC(C)C)NC(C)=O)C(=O)N[C@@H](CO)C(=O)N[C@@H](Cc1cccc2ccccc12)C(=O)N1CCC[C@H]1C(=O)N[C@@H](CC(C)C)C(=O)N(C)C (Ac-LPIS[1Nal]PL-NMe2) | 14200 nM | 2600 nM | 57.8 µM | 20100 nM
2 | CC[C@H](C)[C@H](NC(=O)[C@H](CO)NC(=O)[C@H](Cc1ccccc1)NC(=O)[C@@H]1CCCN1C(=O)[C@H](CC(C)C)NC(C)=O)C(=O)N1CCC[C@H]1C(=O)N[C@@H](CC(C)C)C(=O)N(C)C (Ac-LPFSIPL-NMe2) | 30500 nM | 5620 nM | 177 µM | 62000 nM
3 | CC(=O)N[C@@H](CC(C)C)C(=O)N1CCC[C@H]1C(=O)N[C@H](C(=O)N[C@@H](CN)C(=O)N[C@@H](CC1CCCC1)C(=O)N1CCC[C@H]1c1nc(-c2ccccc2)cn1CC1CCCCC1)C(C)C (Ac-LPV[Dap][Ala(cPent)]-X3) | 82 nM | 13 nM | 0.427 µM | 101 nM
4 | CCn1cc(-c2ccccc2)nc1[C@@H]1CCCN1C(=O)[C@H](CC1CCCC1)NC(=O)[C@H](CN)NC(=O)[C@@H](NC(=O)[C@@H]1CCCN1C(=O)[C@H](CC(C)C)NC(C)=O)C(C)C (Ac-LPV[Dap][Ala(cPent)]-X1) | 341 nM | 50 nM | 1.57 µM | 369 nM
5 | CC[C@H](C)[C@H](NC(=O)[C@@H]1CCCN1C(=O)[C@H](CC(C)C)NC(C)=O)C(=O)N[C@@H](CO)C(=O)N[C@H](C(=O)N1CCC[C@H]1C(=O)N[C@@H](CC(C)C)C(=O)N(C)C)[C@@H](C)CC (Ac-LPISIPL-NMe2) | 1780 nM | 300 nM | 6.83 µM | 2150 nM
6 | Ac-LPVSIPL-NH2 | 1020 nM | 160 nM | 4.79 µM | 1430 nM
7 | CC[C@H](C)[C@H](NC(=O)[C@@H]1CCCN1C(=O)[C@H](CC(C)C)NC(C)=O)C(=O)N[C@@H](CO)C(=O)N[C@@H](Cc1ccccc1)C(=O)N1CCC[C@H]1C(=O)N[C@@H](CC(C)C)C(=O)N(C)C (Ac-LPISFPL-NMe2) | 1660 nM | 280 nM | 22.7 µM | 7730 nM
8 | CC[C@H](C)[C@H](NC(=O)[C@@H]1CCCN1C(=O)[C@H](CC(C)C)NC(C)=O)C(=O)N[C@@H](CO)C(=O)N[C@H](C(=O)N1CCC[C@H]1C(=O)N[C@@H](CC(C)C)C(=O)N(C)C)C1CCCCC1 (Ac-LPIS[Chg]PL-NMe2) | 3490 nM | 620 nM | 10.5 µM | 3440 nM
9 | Ac-LPISIPL-NH2 | 1040 nM | 160 nM | 10.3 µM | 3370 nM
10 | CC[C@H](C)[C@H](NC(=O)[C@@H]1CCCN1C(=O)[C@H](CC(C)C)NC(C)=O)C(=O)N[C@@H](CCCN)C(=O)N[C@H](C(=O)N1CCC[C@H]1C(=O)N[C@@H](CC(C)C)C(=O)N(C)C)[C@@H](C)CC (Ac-LPI[Orn]IPL-NMe2) | 24300 nM | 4250 nM | 172 µM | 60200 nM
11 | CC[C@H](C)[C@H](NC(=O)[C@@H]1CCCN1C(=O)[C@H](CC(C)C)NC(C)=O)C(=O)N[C@@H](CN)C(=O)N[C@@H](CC1CCCC1)C(=O)N1CCC[C@H]1C(=O)N[C@@H](CC(C)C)C(=O)N(C)C (Ac-LPI[Dap][Ala(cPent)]PL-NMe2) | 120 nM | 20 nM | 0.39 µM | 90 nM
12 | CC(=O)N[C@@H](CC(C)C)C(=O)N1CCC[C@H]1C(=O)N[C@H](C(=O)N[C@@H](CN)C(=O)N[C@@H](CC1CCCC1)C(=O)N1CCC[C@H]1c1nc(-c2ccccc2)cn1C)C(C)C (Ac-LPV[Dap][Ala(cPent)]-X4) | 372 nM | 57 nM | 1.77 µM | 417 nM
13 | CC[C@H](C)[C@H](NC(=O)[C@@H]1CCCN1C(=O)[C@H](CC(C)C)NC(C)=O)C(=O)N[C@@H](CO)C(=O)N[C@@H](CC1CCCCC1)C(=O)N1CCC[C@H]1C(=O)N[C@@H](CC(C)C)C(=O)N(C)C (Ac-LPIS[Cha]PL-NMe2) | 1140 nM | 180 nM | 6.06 µM | 1880 nM
14 | CC(=O)N[C@@H](CC(C)C)C(=O)N1CCC[C@H]1C(=O)N[C@H](C(=O)N[C@@H](CN)C(=O)N[C@@H](CC1CCCC1)C(=O)N1CCC[C@H]1c1nc(-c2ccccc2)cn1C(C)C)C(C)C (Ac-LPV[Dap][Ala(cPent)]-X2) | 369 nM | 57 nM | 1.22 µM | 287 nM
15 | CC[C@H](C)[C@H](NC(=O)[C@@H]1CCCN1C(=O)[C@H](CC(C)C)NC(C)=O)C(=O)N[C@@H](CO)C(=O)N[C@H](C(=O)N1CCC[C@H]1C(=O)N[C@@H](CC(C)C)C(=O)N(C)C)C1CCCC1 (Ac-LPIS[Gly(cPent)]PL-NMe2) | 1490 nM | 250 nM | 4.54 µM | 1340 nM
16 | CC[C@H](C)[C@H](NC(=O)[C@H](CO)NC(=O)[C@H](CC(C)C)NC(=O)[C@@H]1CCCN1C(=O)[C@H](CC(C)C)NC(C)=O)C(=O)N1CCC[C@H]1C(=O)N[C@@H](CC(C)C)C(=O)N(C)C (Ac-LPLSIPL-NMe2) | 6400 nM | 1160 nM | 43.9 µM | 15200 nM
17 | CC(C)[C@H](NC(=O)[C@@H]1CCCN1C(=O)c1ccccc1)C(=O)N[C@@H](CN)C(=O)N[C@@H](CC1CCCC1)C(=O)N1CCC[C@H]1c1nc(-c2ccccc2)cn1CC1CCCCC1 (Bz-PV[Dap][Ala(cPent)]-X3) | 57 nM | 9 nM | 0.504 µM | 119 nM
18 | CC[C@H](C)[C@H](NC(=O)[C@@H]1CCCN1C(=O)[C@H](CC(C)C)NC(C)=O)C(=O)N[C@@H](CO)C(=O)N[C@@H](Cc1ccc2ccccc2c1)C(=O)N1CCC[C@H]1C(=O)N[C@@H](CC(C)C)C(=O)N(C)C (Ac-LPIS[2Nal]PL-NMe2) | 4110 nM | 730 nM | 42.2 µM | 14600 nM
19 | CC[C@H](C)[C@H](NC(=O)[C@@H]1CCCN1C(=O)[C@H](CC(C)C)NC(C)=O)C(=O)N[C@@H](CO)C(=O)N[C@@H](CC1CCCC1)C(=O)N1CCC[C@H]1C(=O)N[C@@H](CC(C)C)C(=O)N(C)C (Ac-LPIS[Ala(cPent)]PL-NMe2) | 850 nM | 130 nM | 2.17 µM | 510 nM
20 | CC[C@H](C)[C@H](NC(=O)[C@@H]1CCCN1C(=O)[C@H](CC(C)C)NC(C)=O)C(=O)N[C@@H](CO)C(=O)N[C@@H](CC(C)C)C(=O)N1CCC[C@H]1C(=O)N[C@@H](CC(C)C)C(=O)N(C)C (Ac-LPISLPL-NMe2) | 4660 nM | 830 nM | 18.6 µM | 6290 nM
21 | CC[C@H](C)[C@H](NC(=O)[C@@H]1CCCN1C(=O)[C@H](CC(C)C)NC(C)=O)C(=O)N[C@@H](CO)C(=O)N[C@@H](Cc1c[nH]c2ccccc12)C(=O)N1CCC[C@H]1C(=O)N[C@@H](CC(C)C)C(=O)N(C)C (Ac-LPISWPL-NMe2) | 2370 nM | 410 nM | 7.42 µM | 2350 nM
22 | CC[C@H](C)[C@H](NC(=O)[C@H](CO)NC(=O)[C@H](CC1CC1)NC(=O)[C@@H]1CCCN1C(=O)[C@H](CC(C)C)NC(C)=O)C(=O)N1CCC[C@H]1C(=O)N[C@@H](CC(C)C)C(=O)N(C)C (Ac-LP[Ala(cPr)]SIPL-NMe2) | 4290 nM | 780 nM | 14.6 µM | 4890 nM
23 | CC(C)CCC(=O)N1CCC[C@H]1C(=O)N[C@H](C(=O)N[C@@H](CN)C(=O)N[C@@H](CC1CCCC1)C(=O)N1CCC[C@H]1c1nc(-c2ccccc2)cn1CC1CCCCC1)C(C)C ({Pentanoyl(4-Me)}-PV[Dap][Ala(cPent)]-X3) | 149 nM | 23 nM | 0.237 µM | 56 nM
24 | CC[C@H](C)[C@H](NC(=O)[C@H](CO)NC(=O)[C@@H](NC(=O)[C@@H]1CCCN1C(=O)[C@H](CC(C)C)NC(C)=O)C(C)C)C(=O)N1CCC[C@H]1C(=O)N[C@@H](CC(C)C)C(=O)N(C)C (Ac-LPVSIPL-NMe2) | 1100 nM | 170 nM | 3.6 µM | 1010 nM
25 | Ac-LPISIPLSTV-NH2 | 140 nM | 20 nM | 0.63 µM | 150 nM
26 | CC[C@H](C)[C@H](NC(=O)[C@@H]1CCCN1C(=O)[C@H](CC(C)C)NC(C)=O)C(=O)N[C@@H](CN)C(=O)N[C@H](C(=O)N1CCC[C@H]1C(=O)N[C@@H](CC(C)C)C(=O)N(C)C)[C@@H](C)CC (Ac-LPI[Dap]IPL-NMe2) | 1200 nM | 190 nM | 4.25 µM | 1240 nM
